Converted amounts (≈) assume the structure as drawn. Residues, ends and D or L forms follow the SMILES beside them. *: point of attachment. OBn = c1ccc(CO*)cc1 Some results are limits rather than exact numbers.

101 compounds from PubChem BioAssay AID1996 can be followed below.

The conditions of the data set: buffer; pH 7.4; 200.0 µM.
As for `COc1cccc(OC)c1C(=O)NC(=O)Nc1c(F)cc(F)cc1F`, the solubility (kinetic) (as a rule, solubility judged after dilution from a stock solution rather than from solid) was 5.4 µg/mL (≈ 15.2 µM).

`COCc1nc2oc3ccc(F)cc3c(=O)c2cc1C(=O)OC` yielded a kinetic solubility of 10.4 µg/mL (≈ 32.8 µM). Compared with the last compound, the solubility kinetic is about 1.9-fold higher. As for `CC(NC(=O)COC(=O)Cn1cc(C(F)(F)F)ccc1=O)c1ccccc1` (stereo unspecified), the figure is greater than 57.3 µg/mL. To `CC(OC(=O)C1CCC1)C(=O)Nc1cc(Cl)cc(Cl)c1` (stereo unspecified) belongs 2.4 µg/mL (≈ 7.59 µM). `CC(C)(C)c1csc(NC(=O)CS(=O)(=O)c2ccccc2)n1` came in with a kinetic solubility of 50.6 µg/mL (≈ 150 µM). As for `CCNc1oc(/C=C/c2ccc(OCC)cc2)nc1C#N`, the figure is 1.7 µg/mL (≈ 6 µM); as for `N#Cc1cc(C#N)c(SCC(=O)NCC2CCCO2)nc1N` (stereo unspecified), greater than 47.6 µg/mL; as for `C#CCOc1ccc2c(c1)c(C(C)=O)c(C)n2Cc1ccccc1`, 1 µg/mL (≈ 3.15 µM). With `O=C(NC1CC1)C1CCN(C(=O)c2ccccc2Cl)CC1`, the kinetic solubility is greater than 46 µg/mL. As for `Clc1ccc(CNc2ccccn2)cc1`, the figure is 25.8 µg/mL (≈ 118 µM); as for `CCCCN(C(=O)C1=NN(c2ccccc2)C(=O)CC1)c1c(N)n(CCC)c(=O)[nH]c1=O`, greater than 66.1 µg/mL. As to `O=C(CSc1nnc(Nc2ccccc2F)s1)NC1CCS(=O)(=O)C1` (stereo unspecified), the kinetic solubility was greater than 60.4 µg/mL. Turning to `O=c1[nH]c(-c2cccnc2)nc2sc(-c3ccccc3)cc12`, the solubility (kinetic) amounted to 0.2 µg/mL (≈ 0.655 µM).

`COc1ccccc1N1C(=O)C(=O)N(C)C1=O`: the kinetic solubility was greater than 35.1 µg/mL. On to `CCCn1c(COc2ccc(C(=O)O)cc2)nc2ccccc21`, for which the solubility (kinetic) was greater than 46.6 µg/mL.

In turn, `CCN1C(=O)c2cccc3c(Cl)ccc(c23)C1=O` had a kinetic solubility of 1 µg/mL (≈ 3.85 µM).

Consider `Fc1cccc2sc(N3CCCC3)nc12`, for which the kinetic solubility is 17.4 µg/mL (≈ 78.3 µM). As for `CN(C)/C=C(\C#N)C(=O)Nc1ccc(F)c(Cl)c1`, the figure is 2 µg/mL (≈ 7.47 µM); as for `COc1ccc([N+](=O)[O-])cc1NC(=O)C(C)OC(=O)C1CCCC1` (stereo unspecified), 12 µg/mL (≈ 35.7 µM); as for `CC(=O)c1sc(-c2ccccc2)cc1NS(=O)(=O)c1ccccc1`, less than 0.8 µg/mL. To `CCOc1ccc(C(CC(=O)O)NC(=O)Cc2ccc(Cl)cc2)cc1` (stereo unspecified) belongs greater than 54.3 µg/mL; to `Cc1c(NC(=O)COC(=O)C2=COCCO2)cccc1[N+](=O)[O-]`, greater than 48.3 µg/mL. Consider `N/C(CCS(=O)(=O)c1ccc(Cl)cc1)=N\OC(=O)c1ccc(Cl)cc1`, for which the kinetic solubility was 1.2 µg/mL (≈ 2.99 µM). As for `CC1Cc2ccccc2N1C1=CC(=O)CCC1` (stereo unspecified), the figure is greater than 34.1 µg/mL. As for `CCCCCCCN1C2=NCCN2c2ccccc21.Cl`, the figure is greater than 44.1 µg/mL; as for `C=CCn1c(O)c(CN2CCCCC2)c(C)c(C#N)c1=O`, greater than 43.1 µg/mL; as for `CN(C)[C@@H]1C(=O)C(C(N)=O)=C(O)[C@@]2(O)C(=O)C3=C(O)c4c(O)cccc4[C@@](C)(O)C3[C@H](O)C12.Cl` (stereo partly specified), 70.2 µg/mL. To `CN(CCOc1ccc(CC2SC(=O)NC2=O)cc1)c1ccccn1.O=C(O)/C=C\C(=O)O` (stereo unspecified) belongs 68.2 µg/mL; to `Cn1c(SCC(=O)N2CCCC2=O)nc2ccccc2c1=O`, 13.2 µg/mL (≈ 41.6 µM); to `CC1(C)CC(=O)C(CC(=O)NC2CCCc3ccccc32)C(=O)C1` (stereo unspecified), greater than 49.1 µg/mL. In turn, `COc1ccc(C2(O)C(=O)Nc3ccc(C)cc32)cc1` (stereo unspecified) showed a solubility (kinetic) greater than 40.4 µg/mL. To `O=[N+]([O-])c1ccc(N2CCN(c3ccccn3)CC2)c(Cl)c1` belongs 0.8 µg/mL (≈ 2.51 µM); to `CC(=O)NCC(=O)N[C@@H](CC(=O)OCc1ccccc1)C(=O)OCc1ccccc1` (Ac-Gly-Asp(OBn)-OBn), greater than 61.9 µg/mL; to `Cc1cccc(Nc2ccc([N+](=O)[O-])cn2)c1`, 13.4 µg/mL (≈ 58.5 µM). To `CCOc1ccc(C(c2c(O)nc(SC)[nH]c2=O)c2c(O)nc(SC)[nH]c2=O)cc1` belongs greater than 67.3 µg/mL; to `CN(C)C(CNC(=O)c1ccc(C(F)(F)F)cc1)c1ccco1` (stereo unspecified), greater than 48.9 µg/mL; to `COc1cc2c(cc1OC)CN(C(=S)Nc1ccc(Cl)cc1)CC2`, less than 0.4 µg/mL.

`Cc1noc(C)c1CC(=O)Nc1ccc2c(c1)OCO2` yielded a solubility (kinetic) greater than 41.1 µg/mL. Consider `Cc1ccc(C(=O)NCC(=O)NCc2ccc(Cl)cc2)s1`, for which the solubility (kinetic) was found to be 7.4 µg/mL (≈ 22.9 µM). To `Nc1cc(=O)[nH]c(SCC(=O)NCCC2=CCCCC2)n1` belongs greater than 46.3 µg/mL. To `O=C1c2oc3ccccc3c(=O)c2C(c2ccc(O)cc2)N1c1nccs1` (stereo unspecified) belongs 0.8 µg/mL (≈ 2.13 µM); to `O=C(NC(=S)Nc1ccc([N+](=O)[O-])cc1O)C1CCCCC1`, 3.5 µg/mL (≈ 10.8 µM). To `COc1ccc(NC(=O)CN(C)C2CCCCC2)cc1Cl` belongs 32.7 µg/mL (≈ 105 µM). Regarding `COc1cccc(-c2ccc3c(N)c(C(=O)NC4CC4)sc3n2)c1`, the kinetic solubility was found to be 15.1 µg/mL (≈ 44.5 µM). Compared with the last compound, the solubility kinetic is about 2.2-fold lower.

For the compound `O=C(c1cc(-c2cccc(Cl)c2)on1)N1CCCC1`, the kinetic solubility was 7.5 µg/mL (≈ 27.1 µM). To `Cc1c(O)nc(SC2CC(=O)N(c3cc(Cl)cc(Cl)c3)C2=O)[nH]c1=O` (stereo unspecified) belongs greater than 60 µg/mL; to `COc1ccc(C(=O)NCc2ccc(N3CCN(C)CC3)cc2)cc1`, greater than 50.9 µg/mL; to `O=C(NCCCCc1ccccc1)C1CCCC1`, 33.1 µg/mL (≈ 135 µM). `CC1CCC(NC(=O)c2cc3c(s2)CCCC3)CC1` (stereo unspecified) returned a kinetic solubility of 2.8 µg/mL (≈ 10.1 µM). To `COc1ccc(CCN=C(N)Nc2nc(C)cc(C)n2)cc1` belongs 36.5 µg/mL (≈ 122 µM); to `O=C(OCC(=O)N1CCc2ccccc21)c1ccccc1F`, 1.7 µg/mL (≈ 5.68 µM).

Take `Cc1ccc(C(=O)NCCNC(=O)c2ccco2)cn1`: the kinetic solubility stood at 31.7 µg/mL (≈ 116 µM). To `NS(=O)(=O)c1ccc(NC(=O)c2ccc(S(=O)(=O)N3CCCCC3)cc2)cc1` belongs 2.1 µg/mL (≈ 4.96 µM). The compound `Cc1cc(Nc2ccc(O)cc2)n2c(nc3ccccc32)c1C#N` yielded a solubility (kinetic) of 0.9 µg/mL (≈ 2.86 µM). As for `Cc1ccc(NC(=O)C(C)OC(=O)/C=C/c2ccccc2)cc1` (stereo unspecified), the figure is 4 µg/mL (≈ 12.9 µM). As for `COC(=O)CC1NCCc2cc(OC)c(OC)cc21` (stereo unspecified), the figure is greater than 39.8 µg/mL; as for `O=[N+]([O-])c1cc(-c2ncccn2)c([N+](=O)[O-])s1`, 34.8 µg/mL (≈ 138 µM). On to `CCOc1ccc(CN(C)C(=O)CNC(=O)C2CCCCC2)cc1`, for which the solubility (kinetic) is greater than 49.9 µg/mL. To `CN(Cc1ccc2c(c1)OCCO2)C(=O)CSc1ncnc2sccc12` belongs 41.8 µg/mL (≈ 108 µM); to `O=S(=O)(Nc1ccccc1)c1ccc(NS(=O)(=O)c2cccs2)cc1`, 34.4 µg/mL (≈ 87.2 µM); to `Cc1ccc(NC(=O)CSCC(=O)O)cc1`, greater than 35.9 µg/mL.

In turn, `CC(=O)c1ccccc1NC(=O)CC1(CC(=O)O)CCCCC1` yielded a kinetic solubility greater than 47.6 µg/mL. As for `O=C1c2ccccc2NC(c2cccc(O)c2)N1c1ccccc1` (stereo unspecified), the figure is 2.9 µg/mL (≈ 9.17 µM); as for `CC1CCCC(NC(=O)Cn2c(Cl)nc3c2c(=O)n(C)c(=O)n3C)C1C` (stereo unspecified), greater than 57.3 µg/mL; as for `Cn1nc(C(=O)OCC(=O)NCCc2ccccc2)c2ccccc2c1=O`, greater than 54.8 µg/mL.

On to `C(=N\NC1=NCCN1)/c1ccncc1.Cl`, for which the kinetic solubility was greater than 39.3 µg/mL. To `CO/N=C/C(NC(=O)c1ccc(C(F)(F)F)cc1)C(=O)OC` (stereo unspecified) belongs greater than 47.7 µg/mL. On to `CCCCCCn1c(N2CCCC2)nc2c1c(=O)n(C)c(=O)n2C`, for which the kinetic solubility was determined as 48.6 µg/mL (≈ 146 µM). As for `Cc1ccc(C2Nc3cccc4cccc(c34)N2)cc1`, the figure is 4.7 µg/mL (≈ 18.1 µM); as for `Cc1cc(C(=O)NCCc2ccc(Cl)cc2)no1`, 18.6 µg/mL (≈ 70.3 µM); as for `CC(C)C(NC(=O)c1ccco1)C(=O)NC1CCCCCC1` (stereo unspecified), 37.8 µg/mL (≈ 123 µM). As for `Cc1c(C(=O)O/N=C(\N)c2ccccn2)cccc1[N+](=O)[O-]`, the figure is 5.2 µg/mL (≈ 17.3 µM); as for `Cc1cccc(N2C(=O)Cc3ccccc3C2=O)c1`, 30.7 µg/mL (≈ 122 µM); as for `CC(C)(C)NS(=O)(=O)c1ccc(NC(=S)NC(=O)C2CCC2)cc1`, 1.1 µg/mL (≈ 2.98 µM). In the case of `COc1cccc(C(=O)C2CN(C)CC2c2ccc(Cl)cc2)c1` (stereo unspecified), the solubility (kinetic) is greater than 49.5 µg/mL.

`Cc1ccc(C)c(C(=O)OCC(=O)N(C)c2ccccc2)c1` gave a solubility (kinetic) of 38 µg/mL (≈ 128 µM).

Take `C=CCOn1c(=O)c(-c2ccc(C)cc2)[n+]([O-])c2ccccc21`: the kinetic solubility was found to be 5.7 µg/mL (≈ 18.5 µM). As for `Cc1cc(N2CC(C)OC(C)C2)nc(C(C)C)n1` (stereo unspecified), the figure is 21.9 µg/mL (≈ 87.8 µM); as for `CC1Cc2ccccc2N1C(=O)COC(=O)c1ccc(Cl)nc1` (stereo unspecified), 11.1 µg/mL (≈ 33.6 µM); as for `CN(c1cccc(NC(=O)c2ccc(C(C)(C)C)cc2)c1)S(C)(=O)=O`, less than 0.4 µg/mL. `CC(=O)N(CCC(c1ccco1)C(C)C)Cc1ccc(Cl)cc1` (stereo unspecified): the kinetic solubility was found to be 16.4 µg/mL (≈ 49.1 µM). As for `O=C(Cc1ccccc1)Oc1coc(CSc2ncccn2)cc1=O`, the figure is greater than 53.2 µg/mL; as for `COC(=O)C1C(O)=C(C=Nc2cccc3ccccc23)C(=O)CC1(C)C` (stereo unspecified), 31.6 µg/mL (≈ 89.9 µM); as for `CC(C)(C)c1csc(NC(=O)CCc2ccccc2)n1`, 2.1 µg/mL (≈ 7.28 µM). As for `CC(C)c1ccc(NC(=O)C2CC2c2ccccc2)cc1` (stereo unspecified), the figure is 12 µg/mL (≈ 43 µM).

For the compound `Cc1ccc(C(O)CCc2ccc(N)cc2)cc1` (stereo unspecified), the solubility (kinetic) came to 31.9 µg/mL (≈ 132 µM). As for `Cc1cc(N2CCN(C(=O)c3ccco3)CC2)c2ccccc2n1`, the figure is 44.7 µg/mL (≈ 139 µM); as for `O=C(O)c1cccc(N2C(=O)CSC2=S)c1`, greater than 38 µg/mL. To `O=C(CSc1ccccc1)NCCc1ccc(F)cc1` belongs 34.9 µg/mL (≈ 121 µM); to `O=C(O)CSc1nc2ccc(C(=O)c3ccccc3)cc2[nH]1`, 44.4 µg/mL (≈ 142 µM); to `O=C1[C@@H]2[C@H]3CC[C@H](C3)[C@@H]2C(=O)N1O`, 27 µg/mL (≈ 149 µM). As for `COc1ccc(C(=O)O/N=C(\N)c2ccccc2)cc1`, the figure is 27.1 µg/mL (≈ 100 µM); as for `CC(C)[C@H](NS(=O)(=O)c1ccccc1)C(=O)OCC(=O)Nc1cccc(S(N)(=O)=O)c1`, 61.6 µg/mL (≈ 131 µM); as for `Br.CCn1c2c(c(=N)c3ccccc31)CCC2`, greater than 44 µg/mL. Take `CN(C)C(=O)c1cnc(-c2ccccc2)nc1-c1ccccc1`: the solubility (kinetic) was greater than 45.5 µg/mL. As for `COc1cccc2cc(C(=O)NCCN3CCOCC3)oc12`, the figure is greater than 45.7 µg/mL; as for `Cc1ccc(CNc2nc3ccccc3n2C)cc1`, greater than 37.7 µg/mL. As for `Cc1ccc(C(CC(=O)NCCCN(C)C)c2ccc(OC(C)C)cc2)cc1` (stereo unspecified), the figure is 52.9 µg/mL (≈ 138 µM); as for `O=C(CCc1nc2ccccc2s1)N1CCN(c2ccccc2)CC1`, greater than 52.7 µg/mL. As for `Cc1csc(NC(=O)c2ccc(=O)[nH]c2)n1`, the figure is greater than 35.3 µg/mL; as for `O=C1CCCC(O)=C1C=NCc1ccccc1`, greater than 34.4 µg/mL.
